Experimental data from patent publication US5047520A, “2'-alkylidenepyrimidine nucleoside derivatives, process for production thereof, and uses thereof” (Yamasa Shoyu Kabushiki Kaisha, priority 1987, dated 1991).
In brackets after ≈: the same amount, converted by molar mass.

Tests used:
[1] = system: HSV type 2 (HSV-2) strain MS; test: anti-HSV activity: inhibition of cytopathic effect (CPE), HSV-2; assay type: cell-based; conditions: Human alphaherpesvirus 2, 100-320 TCID50, human embryonic lung cells, 37° C., 2 to 3 days, read-out: MIC HSV-2 (minimum concentration at which the CPE is inhibited at least by 50%)
Experimental: (§1) A. Human embryonic lung cells are subcultivated in Eagle's MEM supplemented with 10% semi-fetal calf serum.
(§2) B. The cells thus subcultivated are used as a parent culture. A cell suspension obtained from the parent culture by dividing it at 1:2 split is seeded into 96 microwells in an amount of 150 μl/well and incubated in a CO2 -incubator at 37° C. for 4 to 5 days.
(§3) C. The culture field is discarded, and 100- to 320-50% tissue culture infective doses (100-320 TCID50) of HSV type 1 (HSV-1) strain VR-3 or HSV type 2 (HSV-2) strain MS is inoculated. After incubation at 37° C. for 1 hour, the virus fluid is discarded, 150 μl of Eagle's MEM supplemented with 2.5% semi-fetal calf serum and containing an appropriate amount of each test compound is added, and cultivation is carried out at 37° C. Each of the test compounds is usually diluted in the range of from 100 to 1 μg/ml by serial 0.5 log10 decrements.
(§4) D. After cultivation for 2 to 3 days, the degree of the cytopathic effect (CPE) caused by the viral infection in each of the wells is observed microscopically. At the time when the control cultures, in which the test compound is absent, have shown complete CPE by the viral infection, the degree of CPE in each well is rated from 0 to 4.
(§5) E. The minimum concentration at which the CPE is inhibited at least by 50% (indicated by the CPE score not exceeding 2) is defined as the minimum inhibitory concentration (MIC) of the test compound.

[2] = system: CMV strain AD 169; test: anti-CMV activity: inhibition of plaque formation; assay type: cell-based, cytomegalovirus (CMV); conditions: Human betaherpesvirus 5; CMV strain AD 169, about 50 plaque forming units; human embryonic lung cells; 37° C., 4 to 6 days; read-out: MIC CMV (minimum concentration at which the plaque formation is inhibited at least by 50%)
Experimental: as §1
B. The cells thus subcultivated are used as a parent culture. A cell suspension obtained from the parent culture by dividing it at 1:2 split is seeded into 24 semi-microwells in an amount of 150 μl/well and incubated in a CO2 -incubator at 37° C. for 4 to 5 days.
C. The culture fluid is discarded, and about 50 plaque forming units of CMV strain AD 169 is inoculated. After incubation at 37° C. for 1 hour, 400 μl of Eagle's MEM supplemented with 2.5% semi-fetal calf serum and containing an appropriate amount of each test compound is added, and cultivation is carried out at 37° C. Each of the test compounds is usually diluted in the range of from 100 to 1 μg/ml by serial 0.5 log10 decrements.
D. After cultivation for 4 to 6 days, infected cells are stained with a 0.5% Crystal Violet solution, and the number of plaques formed is counted under the microscope.
E. The minimum concentration at which the plaque formation is inhibited at least by 50%, based on the number of plaques formed in the control cultures in which the test compound is absent, is defined as the minimum inhibitory concentration (MIC) of the test compound.

[3] = system: HSV type 1 (HSV-1) strain VR-3; test: anti-HSV activity: inhibition of cytopathic effect (CPE), HSV-1; assay type: cell-based; conditions: Human alphaherpesvirus 1; HSV-1 strain VR-3, 100-320 TCID50; human embryonic lung cells; 37° C., 2 to 3 days; read-out: MIC HSV-1 (minimum concentration at which the CPE is inhibited at least by 50%)
Experimental: as §1, §2, §3, §4, §5

SMILES: C=C1[C@H](n2ccc(N)nc2=O)O[C@H](CO)[C@H]1O [NH2 H H H, 2'-methylidene-2'-deoxycytidine]
- MIC [1]: 1 µg/mL (≈ 4.18 µM)
- MIC [2]: 0.1 µg/mL (≈ 0.418 µM)
- MIC [3]: 1 µg/mL (≈ 4.18 µM)

SMILES: C=C1[C@H](n2cc(Br)c(=O)[nH]c2=O)O[C@H](CO)[C@H]1O [OH Br H H, 2'-methylidene-2'-deoxy-5-bromouridine]
- MIC [1]: 3.2 µg/mL (≈ 10 µM)
- MIC [3]: 3.2 µg/mL (≈ 10 µM)

SMILES: CC=C1[C@H](n2cc(C)c(=O)[nH]c2=O)O[C@H](CO)[C@H]1O [OH CH3 CH3 H, 2'-ethylidenethymidine]
- MIC [1]: 32 µg/mL (≈ 119 µM)
- MIC [3]: 10 µg/mL (≈ 37.3 µM)

SMILES: C=C1[C@H](n2cc(C)c(=O)[nH]c2=O)O[C@H](CO)[C@H]1O [OH CH3 H H, 2'-methylidenethymidine]
- MIC [1]: 1 µg/mL (≈ 3.93 µM)
- MIC [2]: 5.6 µg/mL (≈ 22 µM)
- MIC [3]: 1 µg/mL (≈ 3.93 µM)

SMILES: C=C1[C@H](n2cc(Cl)c(=O)[nH]c2=O)O[C@H](CO)[C@H]1O [OH Cl H H, 2'-methylidene-2'-deoxy-5-chlorouridine]
- MIC [1]: 10 µg/mL (≈ 36.4 µM)
- MIC [3]: 10 µg/mL (≈ 36.4 µM)

SMILES: C=C1[C@H](n2cc(I)c(=O)[nH]c2=O)O[C@H](CO)[C@H]1O [OH I H H, 2'-methylidene-2'-deoxy-5-iodouridine]
- MIC [1]: 1 µg/mL (≈ 2.73 µM)
- MIC [3]: 1 µg/mL (≈ 2.73 µM)
